From patent US20050152847A1, “Novel formulation” (priority 2002, published 2005)
Structures can show the parent of a compound that is named as a salt.

Assays:
[1] = iso-osmotic with serum/saline; cited from earlier work
[2] = cited from earlier work
stable asthma patients = conditions: fifteen stable asthma patients; lactose dry powder alone; no dosage data given; cited from earlier work
[3] = Concentration of aqueous solution iso-osmotic with serum/saline; format: physicochemical; conditions: expected from number of molecules, not measured
Excerpt: We preferably select an excipient with a concentration of at least >5.5%, preferably >7%—compounds that could be regarded as weak osmolytic or non-osmolytic active compounds—teaching away from WO 00/36915. The selected concentration values are based upon the clinical results presented for lactose and mannitol. The physiological condition is pH 7.4 and 276 mOsm.
The osmotic pressure is proportional to the concentration of the solute for nonelectrolytes. The osmotic pressures of solutions of different nonelectrolytes are proportional to the number of molecules in each solution. This means—when having the same amount in grams—a disaccharide will have about half the osmotic pressure as a monosaccharide, which could also be seen in table 1. This type of generalisations could not be used for electrolytes. All disaccharides (e.g. trehalose) would be expected to have an osmotic pressure corresponding to a solution of at least >7% and trisaccharides (e.g. melezitose, raffinose) needed higher concentration in order to be iso-osmotic with a saline solution. The carbohydrate myo-inositol would be expected to have a concentration of less than 5% for iso-osmolytic activity with saline.

[4] = cited from earlier work; remark: listed apart in the source
[5] = generally regarded; cited from earlier work

## CCN(CC)CC(=O)Nc1c(C)cccc1C [Lidocaine-HCl, reference compound]
[1]
  Concentration of aqueous solution iso-osmotic with serum (%): 4.4%

## OC[C@@H](O)[C@@H](O)[C@H](O)[C@@H](O)CO [Sorbitol]
[1]
  Concentration of aqueous solution iso-osmotic with serum (%): 5.5%

## O=C(CO)[C@@H](O)[C@H](O)[C@H](O)CO [Fructose]
[1]
  Concentration of aqueous solution iso-osmotic with serum (%): 5.1%

## OC[C@@H](O)[C@H](O)[C@@H](O)CO [Xylitol]
[1]
  Concentration of aqueous solution iso-osmotic with serum (%): 4.6%

## OC[C@@H](O)[C@@H](O[C@@H]1O[C@H](CO)[C@H](O)[C@H](O)[C@H]1O)[C@H](O)[C@@H](O)CO [Lactitol]
[1]
  Concentration of aqueous solution iso-osmotic with serum (%): 7%

## OC[C@H]1O[C@@](CO)(O[C@H]2O[C@H](CO)[C@@H](O)[C@H](O)[C@H]2O)[C@@H](O)[C@@H]1O [Sucrose]
[1]
  Concentration of aqueous solution iso-osmotic with serum (%): 9.3%
[2]; submitted to humidity
  Moisture sensitivity: very moisture sensitive

## O=C1O[C@H]([C@@H](O)CO)C([O-])=C1O.[Na+] [Sodium ascorbate]
[1]
  Concentration of aqueous solution iso-osmotic with serum (%): 3.0%

## OC[C@H]1O[C@@H](O[C@H]2[C@H](O)[C@@H](O)C(O)O[C@@H]2CO)[C@H](O)[C@@H](O)[C@H]1O (stereo partly drawn) [Lactose]
[1]
  Concentration of aqueous solution iso-osmotic with serum (%): 9.8%
Stable asthma patients
  Bronchoconstriction after inhalation of dry powder: caused bronchoconstriction

## OC[C@@H](O)[C@@H](O)[C@H](O)[C@H](O)CO [Mannitol]
[1]
  Concentration of aqueous solution iso-osmotic with serum (%): 5.1%

## [Cl-].[Na+] [Sodium chloride]
[1]
  Concentration of aqueous solution iso-osmotic with serum (%): 0.9%

## O[C@H]1[C@H](O)[C@@H](O)[C@H](O)[C@@H](O)[C@H]1O [myo-inositol]
[3]
  Expected concentration of solution iso-osmotic with saline: less than 5%

## OC[C@@H](O)[C@@H](O[C@H]1O[C@H](CO)[C@@H](O)[C@H](O)[C@H]1O)[C@H](O)[C@@H](O)CO [Maltitol]
[1]
  Concentration of aqueous solution iso-osmotic with serum (%): 10%
[4]; pH 4-9 even at higher temperatures
  Stability of water solution: very stable
[4]; room temperature and pH 2-9
  Stability of water solution (time stable): at least 2 years
[2]; 20° C.
  Relative humidity at which moisture is absorbed: ≥ 89%
[5]
  Toxicity, allergenicity, irritancy: nontoxic, nonallergenic and nonirritant

## Cc1cc(C(C)(C)C)c(O)c(C)c1CC1=NCCN1.Cl [Oxymethazoline-HCl, reference compound]
[1]
  Concentration of aqueous solution iso-osmotic with serum (%): 4.9%

## O=C[C@H](O)[C@@H](O)[C@@H](O)[C@H](O)CO [Galactose]
[1]
  Concentration of aqueous solution iso-osmotic with serum (%): 4.9%

## O=C1O[C@H]([C@@H](O)CO)C(O)=C1O [Ascorbic acid]
[1]
  Concentration of aqueous solution iso-osmotic with serum (%): 5.9%
